Measurements published in a melting point compilation (Tetko et al.; mined from patent text by program, amines drawn as free bases though some values may be those of a salt).

Structure (SMILES) | melting point
CC(=O)ON1C(C)(C)CC(OC(=O)c2cccc(C(=O)OC3CC(C)(C)N(OC(C)=O)C(C)(C)C3)c2)CC1(C)C | 98 to 101 °C
O=C(O)CCc1cccc2c1C[C@@H](CCCCc1ccccc1)O2 | 110 to 111 °C
COC1(c2cccc(OCc3ccc(-n4ccnc4-c4ccccc4)cc3)c2)CCOCC1 | 117 to 118 °C
Cn1nnnc1SCCCCSC1=Nc2ccccc2C(=O)NN1 | 94 to 95 °C
O=C1C(=O)c2ccccc2C2=C1SCC(CNCc1ccccc1)O2 (centres undefined) | 60 to 62 °C
COC(=O)C1=C(C)NC(C)=C(C(=O)OCCN2CCN(C(c3ccc(OC)cc3)c3ccc(OC)cc3)CC2)C1c1cccc([N+](=O)[O-])c1 (centres undefined) | 76 to 80 °C
O=C(CN1C(=O)C(NC(=O)OCc2ccccc2)N=C(c2ccccc2)c2ccccc21)NCc1ccccc1 (centres undefined) | 204 to 205 °C
CCCc1nc2c(N)nc3cc(OCc4ccc(C)cc4)ccc3c2n1CC(C)C | 205 to 207 °C
COc1ccc(C(=O)NCC(=O)N2c3ccccc3N(Cc3ccccc3)C(=O)[C@H]3CCC[C@H]32)cc1OC (relative stereo) | 174 to 176 °C
Nc1c(NCc2ccccc2F)ccnc1Cl | 181 to 187 °C
COC(=O)c1ccc(Cn2c(C(=O)C3CCN(CCC4(c5ccccc5)CCN(C(=O)c5cc(OC)c(OC)c(OC)c5)C4)CC3)nc3ccccc32)cc1 (centres undefined) | 92 to 96 °C
Cc1c(NC(=O)c2ccc(OC[C@@H]3CCCO3)cc2)ccc2c1cc(CNCC1CCOCC1)n2C | 166 to 167 °C
CCC(CC)n1c(=O)ccc2cnc(Nc3ccc(N4CCN(C)CC4)cc3)nc21 | 155 to 157 °C
Cc1ccc2nc(SCCN(C(C)C)C(C)C)[nH]c2c1 | 109 to 110 °C
CNC(=O)c1ccc(-c2ccc3nnn(C(C)(C)c4ccc5ncccc5c4)c3n2)cc1F | 171 to 173 °C
COc1cccc(Nc2cc(-c3nnc(C)o3)ccn2)c1 | 192 to 193 °C
N[C@@H](Cc1ccc(CC(F)(F)C(F)(F)F)cc1)[C@H](O)c1cccc(Cl)c1 (racemic) | 109 to 110 °C
Cc1nc(N2CCN(CCC3CC3)C2=O)sc1-c1cc[nH]n1 | 147 to 149 °C
COc1cc2c(cc1OC)CC(=O)N(Cc1ccccc1)CC2 | 141 to 142 °C
Cc1cccc(NC(=O)NC(Cc2ccccc2)C(=O)N(CC(=O)OC(C)(C)C)c2ccccc2)c1 (racemic) | 198 °C
C=C(C)c1ccc2cc(OC)ccc2c1 | 101 °C
CN(C(=O)Nc1nc(OCC(F)(F)F)cc(OCC(F)(F)F)c1F)c1ccc(Br)cc1 | 89 to 90 °C
c1ccc(CN(Cc2ccccc2)OCCCCCCCCON(Cc2ccccc2)Cc2ccccc2)cc1 | 49 to 51 °C
CS(=O)(=O)Nc1cccc(OCc2c[nH]cn2)c1 | 178 to 180 °C
CC(C)c1nc(N)oc1-c1cccc2ccccc12 | 127 to 129 °C

Structure (SMILES) | melting point
CC1(C)CN(CC(C)(O)c2ccc3c(c2)OCO3)c2nc(-c3ccncn3)cc(=O)n2C1 (centres undefined) | 194 to 196 °C
CCCCCCCCCC(=O)OC(=C(OC(=O)CCCCCCCCC)c1ccccn1)c1ccccn1 | 89 to 90 °C
CC(C)(C)OC(=O)NNC(=O)c1ncc(OCc2ccccc2)c(OCc2ccccc2)c1CCl | 170 to 171 °C
Cn1c2c(n(C)c1=O)CC(=NNC(=N)N)C=C2 | 238 °C
N#Cc1ccc(-c2ccc(-c3ccoc3)cc2)cc1 | 199 to 203 °C
CCCCCCC(=O)c1ccc(O)cc1 | 93 °C
CC(C)(c1ccc2ncccc2c1)n1nnc2ccc(-c3ccc(C(N)=O)c(F)c3)nc21 | 127 to 130 °C
CN(c1ccccc1-c1ccc2cnc(Nc3ccc(C4CCN(CC(N)=O)CC4)cc3)nn12)S(C)(=O)=O | 170 °C
O=C1CC[C@H]2CC3(C=C[C@@H]2C1)OCCO3 (relative stereo) | 58 to 59 °C
CCOC(=O)c1c(C)nsc1NC(=O)NC(C)C | 175 to 176 °C
CC(C)(C)CN1C(=O)C(=O)N(c2cccnc2)C1=S | 111 to 113 °C
CN(Cc1cc2ccccc2n1C)C(=O)/C=C/c1ccc(NC(=O)CCC(N)=O)nc1 | 225 to 227 °C
COc1ccccc1N(CCN1CCC(C(=O)c2ccc(F)cc2)CC1)C(=O)c1ccc(CO)cc1 | 87 to 91 °C
COC(=O)c1cc(N)nc(-c2ccc(Cl)cc2F)n1 | 210 to 213 °C
Cc1cc2c(c(C)c1S(=O)(=O)C[N+](=O)[O-])CCC(C)(C)O2 | 110 to 111 °C
O=C(N[C@@H](Cc1ccccc1)C(=O)O)OCC(Cl)(Cl)Cl | 126 °C
COC(=O)CCCc1cc2cc(Cl)ccc2n1S(=O)(=O)c1ccc2c(ccn2C(C)=O)c1 | 127 to 131 °C
CCNC=C(C(=O)C=Cc1ccc2c(c1)OCO2)C(=O)OC | 124 to 125 °C
Cc1cc(Cl)n(-c2ccc(Cl)cc2F)n1 | 95 to 97 °C
COc1cc2c(C3C(=O)Nc4ccccc43)ncnc2cc1OCc1ccccc1 (centres undefined) | 280 to 285 °C
CCN1CCN(c2ccc(NC(=O)Nc3ccc(Oc4cc(Cl)ncn4)cc3)cc2OC)CC1 | 170 to 171 °C
CCCOc1ccccc1-c1ncc(C(=O)N(C)C)c(=O)[nH]1 | 104 to 105 °C
COc1ccc2cc(C=C(C)C(=O)NCCN(O)C(N)=O)ccc2c1 | 174 to 176 °C
C1=CC[C@@]2(Cc3ccccc3)CN(Cc3ccccc3)C[C@H]2C1 (relative stereo) | 142 to 144 °C
